Source: PubChem BioAssay (NCI)
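In this assay, cells in 96-well plates receive the compound at five concentrations for 48 hours. Endpoints are linearly interpolated between the surrounding concentrations. Abbreviation: GI50, concentration required for 50% inhibition of growth. TGI marks complete inhibition of growth.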

Legend:
Experiment in all cases: DTP human tumour cell line panel, 48 h
OVCAR-4 ovarian = tested on: OVCAR-4 ovarian
HOP-92 NSCLC = tested on: HOP-92 NSCLC
DU-145 prostate = tested on: DU-145 prostate
HOP-62 NSCLC = tested on: HOP-62 NSCLC
RPMI-8226 leukemia = tested on: RPMI-8226 leukemia
A549 NSCLC = tested on: A549 NSCLC
SR leukemia = tested on: SR leukemia

SMILES	TGI (OVCAR-4 ovarian) [µM]	TGI (HOP-92 NSCLC) [µM]	TGI (DU-145 prostate) [µM]	TGI (HOP-62 NSCLC) [µM]	TGI (RPMI-8226 leukemia) [µM]	TGI (A549 NSCLC) [µM]	TGI (SR leukemia) [µM]	GI50 (HOP-92 NSCLC) [µM]	GI50 (DU-145 prostate) [µM]	GI50 (HOP-62 NSCLC) [µM]	GI50 (RPMI-8226 leukemia) [µM]	GI50 (A549 NSCLC) [µM]
CC(C)(C)OC(=O)C(C1NC(C(=O)O)C(C)(C)S1)N1C(=O)c2ccccc2C1=O (stereo unspecified)	> 100	> 100	> 100	> 100	> 100	> 100	> 100					
C[C@H](CCc1nc(C#N)c(N)o1)[C@H]1CC[C@H]2[C@@H]3[C@@H](O)CC4C[C@@H](O)CC[C@]4(C)[C@H]3C[C@@H](O)[C@]12C (stereo partly specified)	> 87.6	67	> 76.3	> 54.4	28.6	> 100	> 61.8					
Nc1nc(Cl)c2ncn(Cc3ccccc3CCl)c2n1	6.47	31.1	32.3	62.3	> 100	53.1	> 100					
CNC(Cc1ccccc1)c1cccc(OC)c1O (stereo unspecified)	> 100	> 100	> 100	> 100		> 100	> 100					
COc1ccc(-c2nc3ccc(C)cc3o2)c(OC)c1	74.1	> 66.8	50.5	> 56	49.1	> 67.4	> 72.3					
Clc1ccc2c(NCCNc3nc(-c4ccccc4)cc(-c4ccccc4)n3)ccnc2c1		3.14	3.45	3.05	5.1	3.78		1.61	1.79	1.61	2.19	2
CC[C@H](CCCCC1CC[C@@H]2CC(=O)C[C@H]12)OC (stereo partly specified)	> 100	> 100	> 100	> 100	> 100	> 100	> 100					
COc1cccc(/C=N/n2c(-c3ccccc3)n[nH]c2=O)c1	> 100		> 100	63.5	> 100	> 100						
CCCCNc1nc(SC)nc2nc[nH]c12	> 100	> 100	> 100	> 100	> 100	> 100	> 100					
CC(=O)OCCn1c(Cc2ccc([N+](=O)[O-])cc2)nn(C(C)=O)c1=O	> 100	> 100	> 100		> 100	> 100	> 100					
COC(CNC(=O)C(C)NC(=O)C(C)NC(=O)c1ccccc1)OC (stereo unspecified)	> 100	> 100	> 100		> 100	> 100	> 100					
CNC(=O)N(CCC#N)CCN(CCN(C(=O)NC)c1ccccc1)C(=O)NC	> 100	> 100	> 100	> 100	> 100	> 100	> 100					
CCNC1CC(C(C)(C)NCC)CC=C1C (stereo unspecified)	> 100	> 100	> 100	> 100		> 100	> 100					
Nc1nc(Cl)cc(Nc2ccc3c(c2)CCC3)n1	> 100	> 100	> 100		65.1	> 100	63.3					
COC(=O)c1ccccc1CC1Cc2cc3c(cc2C1)CCC3	> 100	71.2	> 100	> 100	40.1	> 100	29.2					
COc1cc2c[n+](C)c3c4ccccc4ccc3c2cc1OC	28.6		14	37.4	10.1	23.2						
O=C(O)/C(=C\c1ccccc1)Cc1ccccc1	> 100	> 100	> 100	> 100	> 100	> 100						
OCCOCCO[P+]1(OCCOCCO)n2c3ccc2C(c2ccccc2)=C2C=CC(=N2)C(c2ccccc2)=c2ccc(n21)=C(c1ccccc1)C1=NC(=C3c2ccccc2)C=C1	1.05	> 100	1.72		0.0896	3.29						
CCOC(=O)c1sc2nc(SC)nc(Nc3ccc(OC)c(OC)c3)c2c1N	> 100	25.4	> 100	26	> 100	> 100	> 100					
C=CCC1(O)c2cccc(O)c2C(=O)c2c(O)cccc21	> 100	88.9	> 100	> 100	> 100	88.4	44.7					
Nc1ncnc2c1ncn2CC(OCP(=O)(O)O)Oc1ccccc1 (stereo unspecified)	> 100	> 100	> 100	> 100	> 100	> 100						
COc1ccc(C2=C(OC(C)=O)c3cccn3-c3ccccc3S2)cc1	> 10	> 10	> 10	> 10	> 10	> 10	> 10					
CN1N=C(c2ccncc2)OC1c1ccc(Cl)c(Cl)c1 (stereo unspecified)	> 100	> 100	> 100	> 100	> 100	> 100						
CCCCCCCCCCCCCCCCCCNc1ccn(C2OC(CO)C(OP(=O)(O)OCC3CCC(n4ccc(N)nc4=O)O3)C2O)c(=O)n1 (stereo unspecified)	> 100	> 100	> 100	> 100		> 100						
CC(=O)Oc1ccc(-c2cc3ccccc3oc2=O)cc1OC(C)=O	> 100		> 100	> 100	> 100	94.7	> 100					
O=C1c2c(Br)sc(Br)c2[C@H]2NC(=S)O[C@@H]12	31.9	33.8	30.7	34.9	45.5	46.8	15.3					
C=CCCCC1(C)CCCCNC1=O (stereo unspecified)	> 10		> 10	> 10	> 10	> 10	> 10					
Cn1ncc2c(NCCc3ccccc3)nc(Cl)nc21	57.7	58.4	> 100	81.3	47.4	77.4						
N#Cc1c(N2CCOCC2)ncn(-c2ccccc2)c1=O		> 100	> 100	> 100	> 100	> 100	> 100					
